The source made the active and inactive calls.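 The calls were made as follows: active = half-maximal inhibitory concentration AC50 at or below 30 µM; inactive = the rest, including compounds with no fitted curve.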
Molecular target: Protein disulfide-isomerase (Homo sapiens) (UniProt P07237)
Test: inhibition of PDI-catalysed insulin clumping – biochemical, turbidity, dry powder samples, set 3, confirmation (AID 652199)
Details: absorbance 650 nm, 90 min

Sequence of Protein disulfide-isomerase (Homo sapiens) (P07237 whole entry, looked up): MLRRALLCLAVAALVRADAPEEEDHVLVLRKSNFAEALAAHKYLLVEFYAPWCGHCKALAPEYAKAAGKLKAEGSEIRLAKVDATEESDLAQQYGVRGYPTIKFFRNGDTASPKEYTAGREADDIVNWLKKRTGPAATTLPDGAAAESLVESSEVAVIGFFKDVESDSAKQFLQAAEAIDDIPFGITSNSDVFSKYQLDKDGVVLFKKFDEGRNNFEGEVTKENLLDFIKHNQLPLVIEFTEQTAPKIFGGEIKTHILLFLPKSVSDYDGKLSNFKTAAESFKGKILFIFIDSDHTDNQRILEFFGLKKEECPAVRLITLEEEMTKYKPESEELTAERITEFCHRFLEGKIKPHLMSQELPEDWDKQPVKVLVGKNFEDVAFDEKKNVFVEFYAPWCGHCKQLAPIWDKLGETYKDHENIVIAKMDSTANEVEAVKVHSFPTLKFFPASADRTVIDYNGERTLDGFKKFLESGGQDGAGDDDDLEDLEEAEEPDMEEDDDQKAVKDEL

Row | Structure (SMILES) | AC50
1 | O=C(Nc1ccccc1)C1(CCOc2ccccc2)CCN(Cc2ccc(O)c(Cl)c2)CC1 | 30 µM
2 | CCOC(=O)C1(CCOc2ccccc2)CCN(Cc2ccc(O)cc2)CC1 | 20 µM
3 | CCOC(=O)C1(CCOc2ccccc2)CCN(Cc2ccc(OC)c(Cl)c2)CC1 | > 30 µM (inactive)
4 | CCOC(=O)c1c(CN2CCN(CCO)CC2)n(-c2ccccc2)c2cc(Br)c(O)cc12 | 3 µM
5 | C/C1=C\[C@@H](O)C(C)(C)CCCC2(C)OC2C[C@@H]1OC(=O)c1ccc(O)cc1 (some centres not stated) | 1.5 µM

The remaining lines, values ahead:

Row | AC50 | Structure (SMILES)
6 | 0.4 µM | CCOC(=O)C1(CCOc2ccccc2)CCN(Cc2ccc(O)c(Cl)c2)CC1
7 | 0.7 µM | CC(C)OC(=O)C1(CCOc2ccccc2)CCN(Cc2ccc(O)c(Cl)c2)CC1
8 | 0.7 µM | CC(C)(C)OC(=O)C1(CCOc2ccccc2)CCN(Cc2ccc(O)c(Cl)c2)CC1
9 | 3 µM | CCN(C)C(=O)C1(CCOc2ccccc2)CCN(Cc2ccc(O)c(Cl)c2)CC1
10 | 5 µM | C/C1=C\C[C@H](OC(=O)c2ccc(O)cc2)/C(C)=C/[C@@H](O)C(C)(C)CCC1
11 | 3 µM | O=C(NC1CCCC1)C1(CCOc2ccccc2)CCN(Cc2ccc(O)c(Cl)c2)CC1
12 | 1.5 µM | CCOC(=O)C1(CCOc2ccccc2)CCN(C(=O)c2ccc(O)c(Cl)c2)CC1

Source: PubChem BioAssay AID652199 (Broad Institute, 2013)
